From patent US20190365784A1, “USE OF BRASSINOSTEROID ANALOGS FOR THE TREATMENT OF DERMAL DISORDERS BY SELECTIVELY MODULATING LIVER X RECEPTORS (LXR) AND DERMAL DISEASE TREATMENT BY BRASSINOSTEROID ANALOGS ACTING AS SELECTIVE LIVER X RECEPTOR (LXR) MODULATORS” (CONSEJO NACIONAL DE INVESTIGACIONES CIENTÍFICAS Y TÉCNICAS …, priority 2015, published 2019)

Key:
[1] = test system: fatty acid synthase (FAS or FASN); assay: FASN expression in HepG2 cells (real time PCR); assay type: cell-based, human; settings: 1 uM, 3 uM and 10 uM, 6 h
Description: (§2) The cells were incubated for 6 h in the presence of either Compound I (10 uM), or Compound II (10 uM), or the commercial LXR agonist GW3965 (1 uM), or Vehicle [DMSO, 0.1% (v/v)]). To obtain RNA, at the end of the incubation the cells were collected by centrifugation at 1,000 rpm for 2 min, washed with phosphate buffered saline, and lysed in 300 ul TRIZOL (Invitrogen). RNA samples were suspended in ul of RNAse free water, and their concentration determined (NanoDrop spectrophotometer). The ratio of the absorbance at 260 and 280 nm was used to assess RNA purity of an RNA preparation, with a value of 1.8-2.0 indicating pure RNA. To obtain cDNA, 1 ug of total RNA was denatured by incubating for 5 min at 70° C., before the addition of a mixture containing 0.5 ug oligo-dT primers and 25 ng/ml of random primers (Invitrogen), 1.0 mM dNTPs (Invitrogen), and 200 U M-MLV reverse transcriptase (Promega); after this the mixture was retrotranscribed at 37° C. for 60 min, followed by an incubation at 95° C. for 5 min to inactivate the enzyme. For the real time PCR amplification (Stratagene Thermal Cycler), cDNA samples were diluted 1/5 to 1/10 depending on the target amplification product. Calibration curves were obtained by use of eight successive 1:2 sample dilutions. Amplifications were carried out in a 25 ul final volume (5 ul cDNA sample plus 20 ul of reaction mixture) in the presence of either 3, 4 or 5 mM MgCl2 (depending on the amplified sequence), 0.25 mM dNTPs (Invitrogen), 1.25 U Taq polymerase (Invitrogen), 1 μM of the specific primers according to the target amplification sequence, and 0.025 μl SYBR Green (Roche). Melting curves were used to assess the specificity of the amplification products. […]

ABCA1 [2] = assay: ABCA1 expression in HL-60 cells (real time PCR); assay type: cell-based, human; settings: 10 uM, 6 h
Description: (§1) To investigate the effects of Compounds I and II on the expression of three genes involved in lipid metabolism [fatty acid synthase (FAS); and two ATP-dependent cholesterol and phospholipid transporters, such as ABCA1 and ABCG1], human promyelocytic leukemia cells (HL-60) that endogenously express LXR-alpha and LXR-beta were incubated in the presence of either Comp I or Comp II (10 uM), or GW3965 (1 uM) for 6 h. mRNA levels for FAS, ABCA1 and ABCG1 were determined by real time PCR and results were normalized to GAPDH expression. HL-60 (10^6 cells/well) were cultured in RPMI medium supplemented with 5% (v/v) fetal bovine serum, penicillin (100 IU/mL), streptomycin (100 ug/mL) y cyprofloxacin (0.4 ug/mL). […] To obtain RNA, at the end of the incubation the cells were collected by centrifugation at 1,000 rpm for 2 min, washed with phosphate buffered saline, and lysed in 300 ul TRIZOL (Invitrogen). RNA samples were suspended in […] of RNAse free water, and their concentration determined (NanoDrop spectrophotometer). […] To obtain cDNA, 1 ug of total RNA was denatured by incubating for 5 min at 70° C., before the addition of a mixture containing 0.5 ug oligo-dT primers and 25 ng/ml of random primers (Invitrogen), 1.0 mM dNTPs (Invitrogen), and 200 U M-MLV reverse transcriptase (Promega); after this the mixture was retrotranscribed at 37° C. for 60 min, followed by an incubation at 95° C. for 5 min to inactivate the enzyme. For the real time PCR amplification (Stratagene Thermal Cycler), cDNA samples were diluted 1/5 to 1/10 depending on the target amplification product. Calibration curves were obtained by use of eight successive 1:2 sample dilutions. Amplifications were carried out in a 25 ul final volume (5 ul cDNA sample plus 20 ul of reaction mixture) in the presence of either 3, 4 or 5 mM MgCl2 (depending on the amplified sequence), 0.25 mM dNTPs (Invitrogen), 1.25 U Taq polymerase (Invitrogen), 1 μM of the specific primers according to the target amplification sequence, and 0.025 μl SYBR Green (Roche). […]

ABCG1 = ABCG1 expression in HepG2 cells (real time PCR); assay type: cell-based, human; settings: 10 uM, 6 h
Description: as §2

LXR-alpha = target: T1, LXR-alpha (Homo sapiens, UniProt Q13133); assay: LXR-alpha/RXR LRE-luciferase reporter in transfected HEK293T cells; assay type: cell-based; settings: 10 uM, 18 h
T1 sequence (Q13133 1-447): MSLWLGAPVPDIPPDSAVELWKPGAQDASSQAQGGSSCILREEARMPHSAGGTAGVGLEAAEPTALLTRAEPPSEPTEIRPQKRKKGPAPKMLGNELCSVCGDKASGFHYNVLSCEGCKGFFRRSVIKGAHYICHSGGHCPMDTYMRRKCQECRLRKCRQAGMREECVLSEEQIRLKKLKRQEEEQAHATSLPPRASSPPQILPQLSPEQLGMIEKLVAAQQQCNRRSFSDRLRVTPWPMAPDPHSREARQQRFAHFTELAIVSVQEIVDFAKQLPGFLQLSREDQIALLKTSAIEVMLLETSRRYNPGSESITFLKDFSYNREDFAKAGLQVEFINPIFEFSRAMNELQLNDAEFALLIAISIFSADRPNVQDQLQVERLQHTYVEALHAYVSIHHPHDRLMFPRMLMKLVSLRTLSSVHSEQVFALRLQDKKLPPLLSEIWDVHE
T1 sequence (P19793 1-462 partner): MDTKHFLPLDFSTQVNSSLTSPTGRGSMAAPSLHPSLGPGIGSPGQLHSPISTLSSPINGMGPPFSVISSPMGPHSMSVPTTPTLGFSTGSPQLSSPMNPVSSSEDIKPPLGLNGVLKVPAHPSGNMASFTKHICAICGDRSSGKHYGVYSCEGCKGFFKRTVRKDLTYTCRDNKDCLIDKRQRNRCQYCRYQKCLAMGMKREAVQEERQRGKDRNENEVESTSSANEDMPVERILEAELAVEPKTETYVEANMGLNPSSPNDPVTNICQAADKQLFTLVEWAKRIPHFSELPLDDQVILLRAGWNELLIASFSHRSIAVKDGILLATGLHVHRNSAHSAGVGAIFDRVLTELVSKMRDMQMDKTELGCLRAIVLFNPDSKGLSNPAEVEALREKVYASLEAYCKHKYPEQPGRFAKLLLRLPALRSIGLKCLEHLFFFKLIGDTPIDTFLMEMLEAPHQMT
Source text: Since we had previously shown that the beneficial effects of the compounds of the invention are independent of glucocorticoid receptor (GR) activation, we set forth to investigate if they might exert their actions through activation of liver X receptors (LXR). For this purpose we used cultured cells transiently transfected with LXR-alpha, the retinoid X receptor (RXR) and a LXR response element-luciferase reporter (LRE-LUC). A. Human embryonic kidney cells (HEK293T; 5×10^5 cells/well) were cultured in DMEM medium supplemented with 10% (v/v) fetal bovine serum, 100 ug/ml of streptomycin, 100 IU/ml of penicillin and 2 mM glutamine. For the transient transfections, the cell cultures were added with plasmids carrying LXR-alpha (pLXR-alpha; 0.6 ug), the retinoid X receptor (pRXR; 0.2 ug), a LXR response element-luciferase reporter (pRE-LUC; 0.7 ug) and beta-galactosidase gene (pRSV-LacZ; 0.6 ug) as a transfection control, using Lipofectamine 2000 (Invitrogen). […] Compounds III to VI are […] analogs bearing a fluorine atom at C-6. To assess LXR-alpha activation, at the end of the incubation period luciferase activity was measured by use of a luciferase assay system (Promega). The results of three independent assays, carried out in duplicate for each condition, are reported.

[3] = test system: fatty acid synthase (FAS); assay: FAS expression in HL-60 cells (real time PCR); assay type: cell-based, human; settings: 10 uM, 6 h
Description: as §1

ABCA1 [4] = assay: ABCA1 expression in HaCaT cells (real time PCR); assay type: cell-based, human; settings: HaCaT; 10 uM; 24 h after UV irradiation
Description: […] Twenty four hours after irradiation, the cells were harvested and RNA isolated to assess the expression of LXR-alpha, LXR-beta, ABCA1, TNF-alpha, IL-6, and IL-8 genes. HaCaT cells were cultured in DMEM supplemented with 10% (v/v) fetal bovine serum, penicillin (100 U/mL), streptomycin ([…]) and glutamine (2 mM). […] The expressions of ABCA1, TNF-alpha, IL-6, IL-8, LXR-alpha, and LXR-beta were normalized according to glyceraldehyde-3-phosphate dehydrogenase (GAPDH) expression. The results of three independent assays, carried out in duplicate for each condition, are reported.

SMILES	induction of FASN expression [1]	effect on ABCA1 expression (ABCA1 [2])	induction of ABCG1 expression (ABCG1)	induction of LXR-alpha driven gene expression compared with GW3965 (1 uM) (LXR-alpha)	FAS mRNA lower than in vehicle-treated cells [3]	ABCA1 expression versus DMSO-treated cells (ABCA1 [4])
CC[C@@H](C(C)C)[C@H](O)[C@@H](O)[C@@H](C)[C@H]1CC[C@H]2[C@@H]3CCC4=CC(=O)CC[C@]4(C)[C@H]3CC[C@]12C [Compound I, (22S,23S)-22,23-dihydroxystigmast-4-en-3-one]	did not induce	none of the test compounds significantly affected	8 times	within the same range as that observed for GW3965	~40%	marginally induced
CC[C@@H](C(C)C)[C@H](O)[C@@H](O)[C@@H](C)[C@H]1CC[C@H]2[C@@H]3CCC4=CC(=O)C=C[C@]4(C)[C@H]3CC[C@]12C [Compound II, (22S,23S)-22,23-dihydroxystigmasta-1,4-dien-3-one]	did not induce	none of the test compounds significantly affected	3 times	within the same range as that observed for GW3965	~40%	marginally induced
